Experimental data from patent publication US20230074558A1, “DIMERIC COMPOUNDS AS STING AGONISTS” (Mersana Therapeutics, Inc., priority 2019, published 2023).

Tests used:
Assay type in all cases: cell-based
human STING = target: T1, human STING (Homo sapiens, UniProt Q86WV6, G230A/H232R/R293Q/R71H); test: Activation of human STING signaling in permeabilized THP1-Dual cells, IRF3 induction; conditions: digitonin-permeabilized THP1-Dual cells, 30 minutes on ice then 24 h
T1 construct: host or cells: THP1-Dual cells, digitonin-permeabilized
T1 sequence (Q86WV6 whole entry R71H/G230A/H232R/R293Q): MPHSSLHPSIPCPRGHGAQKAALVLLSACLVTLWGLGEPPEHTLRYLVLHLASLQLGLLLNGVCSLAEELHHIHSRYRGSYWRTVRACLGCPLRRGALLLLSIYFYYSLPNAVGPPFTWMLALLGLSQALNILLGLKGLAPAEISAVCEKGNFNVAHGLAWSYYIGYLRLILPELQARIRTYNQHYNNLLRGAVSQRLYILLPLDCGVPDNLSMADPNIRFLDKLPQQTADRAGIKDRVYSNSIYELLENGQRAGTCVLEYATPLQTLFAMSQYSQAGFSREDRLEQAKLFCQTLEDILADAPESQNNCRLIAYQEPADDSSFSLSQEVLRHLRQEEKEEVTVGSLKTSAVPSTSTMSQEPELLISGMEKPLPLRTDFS
Experimental: 4×10^5 THP1-Dual™ cells (NF-κB-SEAP and IRF-Lucia luciferase Reporter Monocytes, Invivogen) were incubated with test Compounds in a 5-fold titration steps from […] in permeabilized buffer (50 mM HEPES pH 7.0, 100 mM KCl, 3 mM MgCl2, 85 mM sucrose, 0.2% BSA, 1 mM ATP, 0.1 mM GTP, 0.1 mM TTP, […]) for 30 minutes on ice. Cells were then washed and incubated in a fresh RPMI media with 10% FBS at 37° C. with 5% CO2 for 24 h. Cell culture supernatants from each sample were collected and NFkB and IRF3 were evaluated as above. Table B provides the results for IRF3 induction (“A” means <1 μM; “B” means ≥1 μM and <10 μM; “C” means ≥10 μM).

[1] = target: T2, human STING (homozygous HAQ allele) (Homo sapiens, UniProt Q86WV6, G230A/H232R/R293Q/R71H); test: Activation of human STING signaling in THP1-Dual Human Monocytes cells, IRF3 luciferase reporter induction; conditions: 24 hours incubation
T2 construct: THP1-Dual™ Human Monocytes cells with the homozygous HAQ allele, known to be a natural variant allele of STING; host or cells: THP1-Dual human monocytes
T2 sequence (Q86WV6 whole entry R71H/G230A/H232R/R293Q): as above
Experimental: (§1) THP1-Dual™ Human Monocytes cells with the homozygous HAQ allele, known to be a natural variant allele of STING occurring in ˜20% of the human population (Invivogen) have been engineered with two independent gene reporter systems: a secreted embryonic alkaline phosphatase (SEAP) reporter gene for NFkB activity, and secreted luciferase reporter for […] (IRF3) activity were used. 4×10^5 THP1-Dual™ cells were incubated with test Compounds in a 5-fold titration steps from 1 to 0.0128 μM in RPMI media with 10% FBS, for 24 hours at 37° C. with 5% CO2. Cell culture supernatants (20 μl) from each incubated sample was added to resuspended QUANTI-Blue™ Solution (Invivogen, 180 μl) in each well of a flat-bottom 96-well plate, then incubated for 2 h. NFkB levels were evaluated using a spectrophotometer at 620-655 nm.
(§2) To evaluate IRF3 reporter levels, cell culture supernatant (20 μl) from each incubated sample was added to QUANTI-Luc™ assay solution (Invivogen, 50 μl), and the luminescence was measured with a SpectraMax M3 spectrophotometer (Molecular Devices).
(§3) The EC50 value was determined from the dose response curve based on reference Compounds. Table A provides the results for IRF3 reporter induction THP1-Dual™ Human Monocytes cells and Table B provides the results for IRF3 reporter induction in THP1-Dual™ KI-hSTING-R232 Cells (“A” means <1 μM; “B” means ≥1 μM and <10 μM; “C” means ≥10 μM).

R232 hSTING variant = target: T3, R232 hSTING variant (Homo sapiens, UniProt Q86WV6, H232R); test: IRF3 reporter induction in THP1-Dual KI-hSTING-R232 Cells; conditions: THP1-Dual KI-hSTING-R232 Cells (R232 haplotype)
T3 construct: host or cells: THP1-Dual KO-STING cells (knock-in: THP1-Dual KI-hSTING-R232)
T3 sequence (Q86WV6 whole entry H232R): as the sequence (Q86WV6 whole entry R71H/G230A/H232R/R293Q) above, with H71R, A230G, Q293R counted along it
Experimental: as §1, §2
NFkB and IRF3 reporter levels were also determined for THP1-Dual™ KI-hSTING-H232 Cells and THP1-Dual™ KI-hSTING-R232 Cells. THP1-Dual™ KI-hSTING-H232 Cells (R232H Haplotype) were generated from THP1-Dual™ KO-STING cells by knockin of the intronless coding sequence (from the ATG to TGA) of the R232H human STING variant (Invivogen). R232H has been identified as a natural variant allele of STING occurring in ˜14% of the human population. THP1-Dual™ KI-hSTING-R232 Cells (R232 Haplotype) were generated from THP1-Dual™ KO-STING cells by knockin of the intronless coding sequence (from the ATG to the TGA) of the R232 hSTING variant. Genomic studies indicate that this variant, which contains an arginine at position 232 (R232), is the most prevalent variant with an occurrence (homozygous allele) of ˜45-58% in the human population.
as §3

SMILES	EC50 (human STING)	EC50 [1]	EC50 (R232 hSTING variant)
O=C(O)CCC(=O)c1nc2ccc(/C=C\c3ccc4nc(C(=O)CCC(=O)O)sc4c3)cc2s1 [Compound 6, (Z)-4,4′-(ethene-1,2-diylbis(benzo[d]thiazole-6,2-diyl))bis(4-oxobutanoic acid)]	≥ 10 µM	≥ 10 µM	
O=C(O)CCC(=O)c1nc2ccc(-c3ccccc3-c3ccc4nc(C(=O)CCC(=O)O)sc4c3)cc2s1 [Compound 9, 4,4′-(1,2-phenylenebis(benzo[d]thiazole-6,2-diyl))bis(4-oxobutanoic acid)]	≥ 10 µM	≥ 10 µM	
O=C(O)CCC(=O)c1nc2ccc(NC(=O)COc3ccc4nc(C(=O)CCC(=O)O)sc4c3)cc2s1 [Compound 18]		< 1 µM	
O=C(O)CCC(=O)c1cc2ccc(NC(=O)Nc3ccc4cc(C(=O)CCC(=O)O)sc4c3)cc2s1 [Compound 25, 4,4′-((carbonylbis(azanediyl))bis(benzo[b]thiophene-6,2-diyl))bis(4-oxobutanoic acid)]	≥ 10 µM	≥ 10 µM	
O=C(O)CCC(=O)c1cc2ccc(-c3ccccc3-c3ccc4cc(C(=O)CCC(=O)O)sc4c3)cc2s1 [Compound 30, 4,4′-(1,2-phenylenebis(benzo[b]thiophene-6,2-diyl))bis(4-oxobutanoic acid)]	1 to 10 µM	1 to 10 µM	
O=C(O)CCC(=O)c1cc2ccc(/C=C\c3ccc4cc(C(=O)CCC(=O)O)sc4c3)cc2s1 [Compound 36, (Z)-4,4′-(ethene-1,2-diylbis(benzo[b]thiophene-6,2-diyl))bis(4-oxobutanoic acid)]	≥ 10 µM	≥ 10 µM	
C=C(COc1cc2cc(C(=O)CCC(=O)O)sc2cc1OC)COc1cc2cc(C(=O)CCC(=O)O)sc2cc1OC [Compound 40, 4,4′-(((2-methylenepropane-1,3-diyl)bis(oxy))bis(6-methoxybenzo[b]-thiophene-5,2-diyl))bis(4-oxobutanoic acid)]		< 1 µM	≥ 10 µM
O=C(O)CCC(=O)c1cc2ccc(CNC(=S)NCc3ccc4cc(C(=O)CCC(=O)O)sc4c3)cc2s1 [Compound 48, 4,4′-(((thiocarbonylbis(azanediyl))bis(methylene))bis(benzo[b]thiophene-6,2-diyl))bis(4-oxobutanoic acid)]	≥ 10 µM	≥ 10 µM	
C=C(COc1c(OC)cc2sc(C(=O)CCC(=O)O)cc2c1F)COc1c(OC)cc2sc(C(=O)CCC(=O)O)cc2c1F [Compound 202, 4,4′-(((2-methylenepropane-1,3-diyl)bis(oxy))bis(4-fluoro-6-methoxybenzo[b]-thiophene-5,2-diyl))bis(4-oxobutanoic acid)]		< 1 µM	< 1 µM
COc1cc2sc(C(=O)CCC(=O)O)cc2c(F)c1OC/C=C/COc1c(OC)cc2sc(C(=O)CCC(=O)O)cc2c1F [Compound 203, (E)-4,4′-((but-2-ene-1,4-diylbis(oxy))bis(4-fluoro-6-methoxybenzo[b]thiophene-5,2-diyl))bis(4-oxobutanoic acid)]		< 1 µM	1 to 10 µM
COc1cc2sc(C(=O)CCC(=O)O)cc2c(F)c1OC/C=C\COc1c(OC)cc2sc(C(=O)CCC(=O)O)cc2c1F [Compound 204, (Z)-4,4′-((but-2-ene-1,4-diylbis(oxy))bis(4-fluoro-6-methoxybenzo[b]-thiophene-5,2-diyl))bis(4-oxobutanoic acid)]		< 1 µM	< 1 µM
COc1cc2sc(C(=O)CCC(=O)O)cc2cc1NC(=O)C1(C(=O)Nc2cc3cc(C(=O)CCC(=O)O)sc3cc2OC)CC1 [Compound 205]		≥ 10 µM	≥ 10 µM
COc1cc2sc(C(=O)CCC(=O)O)cc2cc1NC(=O)CCOc1c(OC)cc2sc(C(=O)CCC(=O)O)cc2c1F [Compound 206]		≥ 10 µM	< 1 µM
C=C(COc1cc2cc(C(=O)CCC(=O)O)sc2cc1OC)COc1c(OC)cc2sc(C(=O)CCC(=O)O)cc2c1F [Compound 207, 4-(5-((2-(((2-(3-carboxypropanoyl)-4-fluoro-6-methoxybenzo[b]thiophen-5-yl)oxy)methyl)allyl)oxy)-6-methoxybenzo[b]thiophen-2-yl)-4-oxobutanoic acid]		< 1 µM	< 1 µM
COc1cc2sc(C(=O)CCC(=O)O)cc2c(F)c1OCC(=CC(=O)F)COc1c(OC)cc2sc(C(=O)CCC(=O)O)cc2c1F [Compound 208]		≥ 10 µM	≥ 10 µM
COc1cc2sc(C(=O)CCC(=O)O)cc2c(F)c1OCC(=CC(=O)OC(C)(C)C)COc1c(OC)cc2sc(C(=O)CCC(=O)O)cc2c1F [Compound 209]		≥ 10 µM	≥ 10 µM
COc1cc2sc(C(=O)CCC(=O)O)cc2c(F)c1OCC(=CCO)COc1c(OC)cc2sc(C(=O)CCC(=O)O)cc2c1F [Compound 210, 4,4′-(((2-(2-hydroxyethylidene)propane-1,3-diyl)bis(oxy))bis(4-fluoro-6-methoxybenzo[b]thiophene-5,2-diyl))bis(4-oxobutanoic acid)]		< 1 µM	< 1 µM
COc1cc2sc(C(=O)CCC(=O)O)cc2c(F)c1OCc1ccccc1COc1c(OC)cc2sc(C(=O)CCC(=O)O)cc2c1F [Compound 211, 4,4′-(((1,2-phenylenebis(methylene))bis(oxy))bis(4-fluoro-6-methoxybenzo[b]thiophene-5,2-diyl))bis(4-oxobutanoic acid)]		< 1 µM	< 1 µM
COc1cc2sc(C(=O)CCC(=O)O)cc2cc1NC(=O)C1(C(=O)Nc2cc3cc(C(=O)CCC(=O)O)sc3cc2OC)CCOCC1 [Compound 218]		≥ 10 µM	≥ 10 µM
COc1cc2sc(C(=O)CCC(=O)O)cc2cc1CCC(=O)Nc1cc2cc(C(=O)CCC(=O)O)sc2cc1OC [Compound 219]		≥ 10 µM	≥ 10 µM
COc1cc2sc(C(=O)CCC(=O)O)cc2cc1CCCC(=O)Nc1cc2cc(C(=O)CCC(=O)O)sc2cc1OC [Compound 220]		≥ 10 µM	≥ 10 µM
COc1cc2sc(C(=O)CCC(=O)O)cc2cc1NC(=O)C1CCN(c2cc3cc(C(=O)CCC(=O)O)sc3cc2OC)C1=O (stereo not shown) [Compound 221]		≥ 10 µM	≥ 10 µM
COc1cc2sc(C(=O)CCC(=O)O)cc2cc1NC(=O)COc1c(OC)cc2sc(C(=O)CCC(=O)O)cc2c1F [Compound 222]		≥ 10 µM	≥ 10 µM
COc1cc2sc(C(=O)CCC(=O)O)cc2cc1NC(=O)C1(C(=O)Nc2cc3cc(C(=O)CCC(=O)O)sc3cc2OC)CCC1 [Compound 223]		≥ 10 µM	≥ 10 µM
COc1cc2sc(C(=O)CCC(=O)O)cc2cc1NC(=O)CC(=O)Nc1cc2cc(C(=O)CCC(=O)O)sc2cc1OC [Compound 224]		≥ 10 µM	≥ 10 µM
COc1cc2sc(C(=O)CCC(=O)O)cc2cc1NCCC(=O)Nc1cc2cc(C(=O)CCC(=O)O)sc2cc1OC [Compound 226]		≥ 10 µM	≥ 10 µM
COc1cc2sc(C(=O)CCC(=O)O)cc2c(F)c1OCC#CCOc1c(OC)cc2sc(C(=O)CCC(=O)O)cc2c1F [Compound 227]		≥ 10 µM	≥ 10 µM
COc1cc2sc(C(=O)CCC(=O)O)cc2cc1/C=C/C(=O)Nc1cc2cc(C(=O)CCC(=O)O)sc2cc1OC [Compound 229]		≥ 10 µM	≥ 10 µM
COC(=O)CCC(=O)c1cc2c(F)c(OCC3(COc4c(OC)cc5sc(C(=O)CCC(=O)OC)cc5c4F)COC3)c(OC)cc2s1 [Compound 262]		≥ 10 µM	
C=C(COc1c(OC)cc2sc(C(=O)CCC(=O)OC)nc2c1F)COc1c(OC)cc2sc(C(=O)CCC(=O)OC)nc2c1F [compound 264]		< 1 µM	≥ 10 µM
